Measured values from patent publication US20110178072A1, “STEREOSPECIFICITY OF METHYLSULFINYL REDUCTION” (priority 2008, published 2011).

How the values were obtained:
[1] = test system: MsrA-knockdown SK-Hep1 cells; test: Growth of MsrA-knockdown SK-Hep1 cells on Met and Met sulfoxide media; type: cell-based, human; settings: 0.1 mM, 96 hours
Procedure: Proliferation Assay—Cell growth was quantified using colorimetric MTS assay (Promega). Cells in regular DMEM medium were plated in 96-well plates at 5×10^3 cells/well, washed with PBS, and specialized DMEM media were added that contained Met, Met-SO, Met-RO, or Met-RSO 24 hours after plating. To assay for cell proliferation, a tetrazolium compound [3-(4,5-dimethylthiazol-2-yl)-5-(3-carboxymethoxyphenyl)-2-(4-sulfophenyl)-2H-tetrazolium, inner salt; MTS] and an electron coupling reagent (phenazine methosulfate; PMS) were mixed according to the manufacturer's protocol and then 20 μL of the mixture were added to 100 μL of phenol red-excluded media that further replaced cell culture media. After 90 minutes of incubation at 37° C. in the atmosphere of 5% CO2, cell proliferation was measured at indicated time periods from 0 to 96 hours at 450 nm in a plate reader. Direct counting of viable cells using 0.2% trypan blue was done in 6-well plates. Knockdown of MsrA in SK-Hep1 cells by siRNA—Double stranded siRNAs (Dharmacon) for targeting human MsrA mRNA were used to knockdown this gene in SK-Hep1 cells. Cells were transfected with siRNA by using DharmaFECT™ Transfection Reagent (Dharmacon) according to the manufacturer's protocol. Proliferation of these cells was assayed 60 hours after transfection in comparison with control transfected cells.

SK-Hep1 cell extracts = test: Specific activity of SK-Hep1 cell extracts for reduction of free Met sulfoxides; type: biochemical, human; settings: for Specific activity for each Met-O: SK-Hep1, ± standard deviations from 3 independent experiments
Procedure: HPLC analysis of media samples-Cells were plated in 6-well plates at 7.5×10^4 cells/well in 1.5 mL of regular DMEM medium. After 24 hours, cells were washed with PBS and the medium was changed to a modified DMEM containing Met, Met-SO, Met-RO, or Met-RSO (0.1 mM of each amino acid). 90 μL of medium from each well was collected at 0, 24, 48, 72, 96 hours and mixed with 10 μL of 100% TCA. After incubation at 4° C. for 10 minutes and centrifugation at 13,000 rpm for 15 minutes, the supernatant (50 μL) was diluted 10 times with distilled water and prepared for OPA derivatization. OPA derivatization of amino acids and HPLC analysis was performed as described (Sharov, V. S., Ferrington, D. A., Squier, T. C., […]. (1999) FEBS Lett. 455, 247-250) with minor modifications. The derivatization reagent was freshly prepared as a stock solution (40 mg of o-phthalaldehyde, 1 mL of methanol, 50 μL, of 2-mercaptoehanol, 5 mL of 0.1 M Na2B4O7, pH 9.5) at room temperature in a capped amber vial. Sample solutions (2-5 μL) were mixed with the OPA derivatization reagent to 100 μL, final volume. Following a 2 minute reaction at room temperature, the mixture was fractionated on a Zorbax Eclipse XDB-C8 column (4.6×150 mm). Changes in Met levels in the fRMsr activity assay were similarly quantified. […] Activity assays of fRMsr-Reaction mixture (40 μL) included 50 mM DTT, 1 mM substrate (Met-RO or Met-SO), and purified enzyme or cell lysate prepared by treatment with […] cell lysis reagent (Sigma). 20 μL of the reaction mixture was mixed with 2 μL of TCA and subjected to OPA derivatization as described above and then injected onto the column to measure endogenous Met level in the samples. An additional 20 μL from the same original reaction mixture were incubated at 37° C. for 30 minutes and then subjected to OPA derivatization by the same procedure using TCA. After derivatization of the sample (2-5 μL) by adding OPA solution to 100 μL as a final volume, 50 μL of the mixture were subjected to an HPLC separation as described above.

selenoproteins = test: 75Se metabolic labeling of SK-Hep1 cells grown on Met and Met sulfoxide media; type: cell-based, human; settings: 0.1 mM of each amino acid
Procedure: ^75 Se Metabolic labeling—SK-Hep1 cells were plated in 6-well plates at 7.5×10^4 cells/well in 1.5 mL of regular DMEM medium. After 24 hours, cells were washed with PBS and the medium was changed to modified DMEM media containing Met, Met-SO, Met-RO, or Met-RSO (0.1 mM of each amino acid). 0.01 mCi of freshly neutralized [^75Se]selenious acid (specific activity 1,000 Ci/mmol, University of Missouri Research Reactor) was added in each well at 48 hours after changing the medium and cells were incubated at 37° C. for 24 hours in 5% CO2 atmosphere, followed by harvesting the cells. Cell extracts (30 μg of total protein) were electrophoresed on 10% Bis-Tris gels and transferred onto PVDF membranes (Invitrogen). The ^75Se radioactivity pattern was visualized by using a PhosphorImager (GE Health Care).

| SMILES | Growth of MsrA-deficient cells [1] | Specific activity for each Met-O (SK-Hep1 cell extracts) | Specific activity of SK-Hep1 cell extracts for reduction of free Met sulfoxide (SK-Hep1 cell extracts) | Selenoprotein patterns (75Se labeling) (selenoproteins) |
| --- | --- | --- | --- | --- |
| C[S@@+]([O-])CC[C@H](N)C(=O)O [Met-RO, methionine-R-sulfoxide] | grew neither | ND* (A signal corresponding to specific activity less than 5 pmol/min/mg is shown as ND (Not Detectable)) | No free Met-RO reductase activity was detected | No difference was observed |
| C[S@+]([O-])CC[C@H](N)C(=O)O [Met-SO, methionine-S-sulfoxide] | grew neither | 38.6 ± 3.6 pmol/min/mg | ≈ 38.6 pmol/min/mg protein | No difference was observed |
